The record followed here is patent US8486465B1 (priority 2007, dated 2013).

This assay deals with Human breast cancer MCF-7 cells. Kind of assay: Apoptosis of MCF-7 cells by Propidium Iodide technique measured by flow cytometry. It is filed as cell-based. Particulars: NOE 0. The text has this:
Cell Culture. […] Levels of apoptosis (cell death) were then examined using the Propidium Iodide technique as measured by flow cytometry using a FACscan (BD Biosciences, San Jose, Calif.). Forward (FSC) and Side scatter (SSC) were used to gate the cells.
FIGS. 1A, 1C, 1E, and 1G are dot plots which show the populations of cells grown under the particular culture conditions described below, while FIGS. 1B, 1D, 1F, and 1H respectively are the corresponding frequency histograms showing the total population of apoptotic MCF-7 cancer cells for each culture.
FIGS. 2A, 2C, 2E, and 2G are dot plots which show the populations of cells grown under the particular culture conditions described below, while FIGS. […] 2B, 2D, 2F and 2H respectively are the corresponding frequency histograms showing the total population of apoptotic MCF-7 cancer cells for each culture.
(In flow cytometry, cells or beads pass a laser one at a time.)

Setting [1] is: GSH 5 mM alone, MCF-7, 24 hours (Table 1, Example 2).
Where [2] appears, read: GSH 10 mM alone, MCF-7, 24 hours (Table 2, Example 3).

For `N[C@@H](CCC(=O)N[C@@H](CS)C(=O)NCC(=O)O)C(=O)O` [GSH, Glutathione], under setting [1], the “% cell death” value came to 20%, the “% cell death relative to control” value was 11%, the “% cell survival” value amounted to 80% and the “% cell survival relative to Control” value is 98%. Under setting [2], the “% cell death” value amounted to 10%, the “% cell death relative to control” value was determined as 96%, the “% cell survival” value is 90% and the “% cell survival relative to Control” value was 95%.
